Values of other authors, collected in patent US12109217B2, “Bioactive agents included in functionalized starch having a single helix V-structure” (B-ORGANIC FILMS CORP., priority 2014, dated 2024).
Like-named read-outs stand apart in the source and are kept apart here. Blank lines part the entries; values can stand above or below the compound they belong to.

Assays:
[1] = in vivo

solubility in water (neutral pH): insoluble in water
solubility (pH 1-2 (similar to gastric pH)): freely soluble
Structure (SMILES): COC(=O)[C@H](c1ccccc1Cl)N1CCc2sccc2C1 [Clopidogrel bisulfate]

oral bioavailability [1]: about 30%
Structure (SMILES): C[C@@H]1CC[C@H]2[C@@H](C)C(=O)O[C@@H]3O[C@@]4(C)CC[C@@H]1[C@]32OO4 [Artemisinin]

solubility (water / aqueous medium (and oil where stated)): poorly soluble in aqueous medium
Structure (SMILES): CC(=O)O[C@H]1C(=O)[C@@]2(C)[C@H]([C@H](OC(=O)c3ccccc3)[C@]3(O)C[C@H](OC(=O)[C@H](O)[C@@H](NC(=O)c4ccccc4)c4ccccc4)C(C)=C1C3(C)C)[C@]1(OC(C)=O)CO[C@@H]1C[C@@H]2O [Paclitaxel]
